# Structures can show the parent of a compound that is named as a salt.
# Columns and labels:
# [1] = test system: mesenteric lymph node and submandibular lymph node; assay: Cell differentiation induction: staining concentration of lymph node sections (HE staining); format: in vivo, MRL-lpr/lpr mice; conditions: four weeks
# Procedure: The PBS solution of the purified keratan sulfate disaccharide (III) which was prepared in Example 1 described above at a dose of 1 mg/kg, 5 mg/kg, or 25 mg/kg weight (hereinafter referred to as the 1 mg/kg administered group, the 5 mg/kg administered group, and the 25 mg/kg administered group, respectively), and PBS as the control (hereinafter sometimes referred to as the control group) was intramuscularly injected, respectively, to the femoral region of MRL-lpr/lpr mice seven times a week for four weeks. After that, the mice were subjected to anatomization to prepare the section specimens (HE staining) of mesenteric lymph node and submandibular lymph node. The staining concentrations per unit area of the specimens were analyzed by an image analyzer (PIAS). In the undifferentiated cells, the staining concentration per unit area is low because proportion of the cytoplasm is high and the nuclei is stained thinly. In the differentiated cells, the staining concentration per unit area is high because proportion of the nuclei is high and it is stained thickly.
# The results of the analysis of mesenteric lymph nodes and submandibular lymph nodes are shown in FIG. 17 and FIG. 18 with the standard errors, respectively. In the figures, ** represents that it has the significant difference with p<0.01 (wherein "p" means a level of significance by the Bonferroni multiple comparative test). […]
# MRL-lpr/lpr mice = assay: Repeated intramuscular administration for four weeks in MRL mice (spleen and mesenteric lymph node weight); format: in vivo
# Procedure: The effect of the keratan sulfate oligosaccharide was examined on MRL mice which are autoimmune disease model mice.
# The PBS solution of the purified keratan sulfate tetrasaccharide (I) (100 mg/ml) which was prepared in Example 1 described above at a dose of 10 mg/kg weight (hereinafter referred to as the administered group), and PBS as the control was intramuscularly injected, respectively, to the femoral region of MRL-lpr/lpr mice five times a week for four weeks. After that, the mice were subjected to anatomization, and the weight of spleens and mesenteric lymph nodes were determined to obtain the average weight. In the table, "n" represents the number of mice used.
SMILES,"staining concentration per unit area (FIG. 17, FIG. 18) ([1]; 5 mg/kg and 25 mg/kg i.m., p<0.01)","staining concentration per unit area (FIG. 17, FIG. 18) ([1]; any dose (1, 5, 25 mg/kg i.m.))",weight increase in spleens and mesenteric lymph nodes (result in words) (MRL-lpr/lpr mice; 10 mg/kg i.m.),"Spleen Weight (MRL-lpr/lpr mice; 10 mg/kg i.m. five times a week, n = 9, mean ± standard error, control 1013 ± 233) [mg]","Mesenteric Lymph Node Weight (MRL-lpr/lpr mice; 10 mg/kg i.m. five times a week, n = 9, mean ± standard error, control 1563 ± 352) [mg]"
"CC(=O)N[C@H]1C(O)O[C@H](COS(=O)(=O)O)[C@@H](O[C@@H]2O[C@H](COS(=O)(=O)O)[C@H](O)[C@H](O)[C@H]2O)[C@@H]1O (stereo partly drawn) [keratan sulfate disaccharide (III), Gal(6S)β1-4GlcNAc(6S)]",the staining concentrations increased significantly compared with the control group,an increase in the staining concentration per unit area (decrease in relative lightness) was observed,–,–,–
"CC(=O)N[C@H]1[C@H](O[C@H]2[C@@H](O)[C@@H](COS(=O)(=O)O)O[C@@H](O[C@H]3[C@H](O)[C@@H](NC(C)=O)C(O)O[C@@H]3COS(=O)(=O)O)[C@@H]2O)O[C@H](COS(=O)(=O)O)[C@@H](O[C@@H]2O[C@H](COS(=O)(=O)O)[C@H](O)[C@H](O)[C@H]2O)[C@@H]1O (stereo partly drawn) [keratan sulfate tetrasaccharide (I), Gal(6S)β1-4GlcNAc(6S)β1-3Gal(6S)β1-4GlcNAc(6S)]",–,–,a suppressive tendency for the weight increase in spleens and mesenteric lymph nodes was observed,704 ± 148,1338 ± 311

# From patent US5939403A, “Keratan sulfate oligosaccharide fraction and pharmaceutical containing the same” (Seikagaku Corporation, priority 1994, dated 1999)
